Laboratory results: patent publication US20220250063A1, “ASSAY SYSTEM, METHODS, AND MULTI-WELL PLATE FOR GAS STIMULATION OF BIOLOGICAL CELLS, PROTEINS OR MATERIALS” (Koniku Inc., priority 2021, published 2022)

Tested on: odorant receptor of the modified cells
Experiment: Gas stimulation of modified cells expressing different odorant receptors in a 96 well microplate, fluorescence recorded by camera
Assay type: cell-based
Settings: sample as gas in the gas channel of 96 well microplate 80; for fluorescent response of the responding wells: different ORs in different wells, responding wells (81A: one well; 81C: four wells; 81E: two wells); for fluorescent response of all of the other wells: remaining dark wells (81B: 95 wells; 81D: 92 wells; 81F: 94 wells)
From the text: In a representative example of operation, an empty microplate is placed in the hatch 120 by a technician or automatically using a microplate loader/unloader. The microplate is moved to the disk support, with the wells aligned with the pipettes. The pipetting head holding the pipettes is lowered to position the tips of the pipettes in or near the wells. The pipettes deposit liquid containing cells into the wells. Inlet and outlet gas nozzles or fittings engage the gas channel inlet and outlet in the microplate. In some embodiments, there are more than one inlets and outlets that correspond to the number of channels and number of samples injected. Gas containing a VOC or other candidate molecule or compound sample is injected through the gas channel of the microplate. This may be done manually or via automation.
If the VOC or other candidate molecule or compound in the sample binds and activates the odorant receptor expressed by the cells, a signal is emitted (e.g., emission of fluorescent or luminescent light). The signal is detected by the camera 128 via the optical unit 126. The computer 138 analyzes and records the location (i.e., the well number or position), the intensity, time duration, color, and/or other parameters of the fluorescent light, along with data on the VOC or other candidate molecule or compound momentarily passing through the microplate. The computer 138 may calculate the mean of the pixels for each well in each of the images.
FIG. 14 is an image as recorded by the camera 128 with a sample of benzaldehyde provided into the gas channel of a 96 well microplate 80.
The microplate 80 shown in FIGS. 14-16 has different cells in different wells. As shown, the odorant receptors of different cells bind to different compounds. In each well of the 96 well microplate 80, the cells expressed the same OR. Different ORs were provided into different wells. […] This allows determination of which ORs may best detect menthol. It may also allow for genetically fine tuning the receptors.

Row | SMILES | fluorescent response of the responding wells | fluorescent response of all of the other wells
1 | CCCCCc1ccco1 [2-pentylfuran] | strong fluorescent responses | no fluorescent response
2 | CC1CCC(C(C)C)C(O)C1 (stereo not drawn) [menthol] | strong fluorescent responses | no fluorescent response
3 | O=Cc1ccccc1 [benzaldehyde] | strongly fluorescing | not at all
